US8163661B2, “Luminescence measurement system” (Olympus Corporation, priority 2007, dated 2012)
Where two headings read alike, the source gives them in different places. Each block holds one molecule with its values, some of them ahead of it.

What was measured:
[1] = target: GL3 luciferase (originating from firefly) (Photinus pyralis, UniProt P08659, K549A/L550V/N119G/N50D/S548I); assay: Km value of GL3 luciferase relative to D-luciferin and ATP (luminometer, photon count); type: biochemical; details: read-out: Km value of GL3 relative to ATP, 10-1280 μM ATP, 1 mM D-luciferin, 8 mM MgSO4, 0.1M Tris-HCl pH 8.0
Sequence of GL3 luciferase (originating from firefly) (P08659 whole entry N50D/N119G/S548I/K549A/L550V): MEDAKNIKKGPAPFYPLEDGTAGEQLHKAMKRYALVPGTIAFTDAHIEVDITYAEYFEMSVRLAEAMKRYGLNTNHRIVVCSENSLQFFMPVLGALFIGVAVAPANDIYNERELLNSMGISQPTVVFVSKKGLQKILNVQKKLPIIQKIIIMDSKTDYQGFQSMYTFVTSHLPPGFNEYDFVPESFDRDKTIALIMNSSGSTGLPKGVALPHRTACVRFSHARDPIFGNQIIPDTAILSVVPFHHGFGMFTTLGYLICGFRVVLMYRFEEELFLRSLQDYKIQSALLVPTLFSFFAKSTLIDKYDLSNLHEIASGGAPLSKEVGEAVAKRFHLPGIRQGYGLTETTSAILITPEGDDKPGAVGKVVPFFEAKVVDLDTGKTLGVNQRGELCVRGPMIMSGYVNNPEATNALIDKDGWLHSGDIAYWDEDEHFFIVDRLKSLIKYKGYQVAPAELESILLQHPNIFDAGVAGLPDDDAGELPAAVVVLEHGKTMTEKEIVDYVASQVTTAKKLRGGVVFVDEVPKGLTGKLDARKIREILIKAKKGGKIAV
Description: (§1) As for the blank, the buffer described above was employed. FIG. 6 illustrates the ultraviolet/visible light absorption spectrum of […].
(§2) Then, in order to calculate the concentration of ATP, the ultraviolet/visible light absorption spectrum of ATP was measured. In this measurement, the spectrum was measured using a diluted (by 2000 times) solution (in 0.1M Citrate/0.2M Na2HPO4 buffer, pH=7.0) of ATP stock solution (about 100 mM). As for the blank, the buffer described above was employed. FIG. 7 illustrates the ultraviolet/visible light absorption spectrum of ATP.
(§3) (Experiment Method 2: Purification of Various Kinds of Luciferase)
(§4) The purification of luciferase was performed according to the following procedure after establishing a luciferase-purification system utilizing affinity chromatography.
(§5) (Procedure of Transfection of Luciferase Expression Vector to Coli Bacillus)
First of all, 0.5 μL of luciferase expression vector was introduced into 50 μL of coli bacillus (JM109(DE3)). Then, the resultant liquid was subjected to a thermostatic treatment consisting of ice-cooling for 10 minutes, heating at 42° C. for one minute and ice-cooling for two minutes. Then, 2 μL of the resultant coli bacillus solution was added to 1 mL of an SOC culture medium. […]

[2] = tested on: CBG luciferase (originating from Hikari Kometsuki); assay: Km value of CBG luciferase relative to D-luciferin and ATP (luminometer, photon count); type: biochemical; details: 8 mM MgSO4, 0.1M Tris-HCl pH 8.0
Description: as §1, §2, §3, §4, §5
(§6) First of all, 0.5 μL of luciferase expression vector was introduced into 50 μL of coli bacillus (JM109(DE3)). Then, the resultant liquid was subjected to a thermostatic treatment consisting of ice-cooling for 10 minutes, heating at 42° C. for one minute and ice-cooling for two minutes. Then, 2 μL of the resultant coli bacillus solution was added to 1 mL of an SOC culture medium.
(§7) Subsequently, the resultant solution of coli bacillus/SOC culture medium mixture was subjected to shaking at 37° C. for 20 minutes and to incubation. Then, 100 μL of the resultant solution was streaked onto an LB culture medium plate (Ampicillin 100 μg/mL+) and subjected to incubation overnight at 37° C.
(§8) (Purification of Luciferase by Means of Affinity Chromatography)
(§9) Then, the coli bacillus was fractured to obtain a raw extract, from which luciferase was purified by means of affinity chromatography.
(§10) Namely, first of all, a suspension of coli bacillus was subjected to centrifugal separation at 15000 rpm for 5 minutes to recover the pellets of coli bacillus, which was then suspended in 10 mL of TBS cooled to 4° C. Subsequently, by making use of French Pressure Cell, the fungus body was fractured. […]

[3] = tested on: ELuc (Emerald Luc) luciferase (originating from Hikari Kometsuki); assay: Km value of ELuc luciferase relative to D-luciferin and ATP (luminometer, photon count); type: biochemical; details: 8 mM MgSO4, 0.1M Tris-HCl pH 8.0
Description: as §1, §2, §3, §4, §5, §6, §7, §8, §9
(§11) Namely, first of all, a suspension of coli bacillus was subjected to centrifugal separation at 15000 rpm for 5 minutes to recover the pellets of coli bacillus, which was then suspended in 10 mL of TBS cooled to 4° C. Subsequently, by making use of French Pressure Cell, the fungus body was fractured. The resultant fungus body-fractured liquid was subjected to centrifugal separation (15000 rpm, 10 minutes) to remove settled residues and to recover a supernatant liquid.
(§12) Subsequently, 2 mL of TBS was added to a column having 2 mL of bed volume and subjected to filtration. Then, 500 μL of a Ni-Agar suspension and 2 mL of TBS were added to the column and the TBS was allowed to gravitationally drop (column equilibration). The supernatant liquid thus recovered was added to the column and allowed to gravitationally drop. Incidentally, the operation until the drop of the supernatant liquid was completed was performed inside a refrigerator at a temperature of 4° C. […]

[4] = tested on: CBR luciferase (originating from Hikari Kometsuki); assay: Km value of CBR luciferase relative to D-luciferin and ATP (luminometer, photon count); type: biochemical; details: 8 mM MgSO4, 0.1M Tris-HCl pH 8.0
Description: as §1, §2, §3, §4, §5, §6, §7, §8, §9, §10

[5] = tested on: Yaeyama luciferase (Yaeyama Hime firefly, Luciola filiformis yayeyamana; DNA Sequence No. 1); assay: Km value of Yaeyama luciferase relative to D-luciferin and ATP (luminometer, photon count); type: biochemical; details: 8 mM MgSO4, 0.1M Tris-HCl pH 8.0
Description: as §1, §2, §3, §4, §5, §6, §7, §8, §9, §11, §12

intercellular ATP = details: apoptosis induced by STS; cited from earlier work
[6] = Km value of luciferase relative to ATP (luminometer photon count, Example 2); type: biochemical
Description: (Experiment Method 4: Calculation of Km Value of Various Kind of Luciferase Relative to ATP)
Then, a 0.1M Tris-HCl (pH=8.0) solution of 100 μg/ml luciferase was prepared. The ATP solutions having the aforementioned concentrations were respectively aliquoted to a vessel having 96 wells, thus creating wells each containing 50 μl of the ATP solution.
Then, the luciferase solution was connected with a standard pump of luminometer, after which a program was prepared so as to initiate the measurement concurrent with the addition of 50 μl of the luciferase solution to each of the wells.
Subsequently, the program was started to measure the photon-count value at each ATP concentration. Incidentally, the measurement was repeated five times at each concentration of ATP.
Based on the results obtained, Lineweaver-Burk plot and Hanes-Woolf plot were prepared.

[7] = Luminescence pattern measured with a luminometer (time to peak luminescence after addition of luciferin); type: biochemical
Source text: Further, with respect to the luminescence pattern obtained from the measurement using a luminometer also, the results obtained from the luciferase originated from Hikari Kometsuki were found different from the results obtained from the firefly-derived luciferase.
Although data are not shown herein, the results obtained from the Luciferase originated from Hikari Kometsuki were found different from the results obtained from the firefly-derived luciferase with respect also to the luminescence pattern obtained from the measurement using a luminometer.

[8] = substrate: O=C(O)[C@H]1CSC(c2nc3ccc(O)cc3s2)=N1; assay: purified protein, by the assay type; details: 5-640 μM D-luciferin, 4 mM ATP, 8 mM MgSO4, 0.1M Tris-HCl pH 8.0
[9] = substrate: Nc1ncnc2c1ncn2[C@@H]1O[C@H](COP(=O)(O)OP(=O)(O)OP(=O)(O)O)[C@@H](O)[C@H]1O; assay: purified protein, by the assay type; type: biochemical, Luciola cruciata; details: 10-1280 μM ATP, 1 mM D-luciferin, 8 mM MgSO4, 0.1M Tris-HCl pH 8.0
Description: as §1, §2
By making use of the absorbency (259 nm, 0.359±0.004, n=10) obtained from the spectrum of FIG. 7, the concentration of the ATP stock solution was calculated (ATP: λmax=259 nm, ε=15400, pH=7.0). As a result of the calculation, the concentration of the ATP stock solution was found as being 46.6 mM. […]
Subsequently, the elute was moved 400 μL by 400 μL to a centrifugal concentration tube (SUPREC™-02, available from TaKaRa Co., Ltd. (exclusion limit molecular weight: 30,000)) and then subjected to centrifugal separation (5000 rpm, 30 minutes) until the elute was concentrated to about 100 μL. Thereafter, the absorbency of the concentrated elute was measured by means of a plate reader and the concentration of luciferase was calculated from the calibration curve which was prepared by making use of BSA. […]

Molecule: Nc1ncnc2c1ncn2[C@@H]1O[C@H](COP(=O)(O)OP(=O)(O)OP(=O)(O)O)[C@@H](O)[C@H]1O [ATP]
Km ([1]; Hanes-Woolf plot): 200 µM
Km ([1]; Lineweaver-Burk plot): 200 µM
Km ([2]; Hanes-Woolf plot, 10-1280 μM ATP, 1 mM D-luciferin, read-out: Km value of CBG relative to ATP): 290 µM
Km ([3]; Hanes-Woolf plot, 10-1280 μM ATP, 1 mM D-luciferin, read-out: Km value of ELuc relative to ATP): 250 µM
Km ([3]; Lineweaver-Burk plot, 10-1280 μM ATP, 1 mM D-luciferin, read-out: Km value of ELuc relative to ATP): 364 µM
Km ([4]; Hanes-Woolf plot, 10-1280 μM ATP, 1 mM D-luciferin, read-out: Km value of CBR relative to ATP): 130 µM
Km ([4]; Lineweaver-Burk plot, 10-1280 μM ATP, 1 mM D-luciferin, read-out: Km value of CBR relative to ATP): 110 µM
Km ([5]; Hanes-Woolf plot, 10-1280 μM ATP, 1 mM D-luciferin, read-out: Km value of Yaeyama relative to ATP): 400 µM
Km ([5]; Lineweaver-Burk plot, 10-1280 μM ATP, 1 mM D-luciferin, read-out: Km value of Yaeyama relative to ATP): 400 µM

Molecule: O=C(O)[C@H]1CSC(c2nc3ccc(O)cc3s2)=N1 [D-luciferin]
Km ([2]; read-out: Km value of CBG relative to D-luciferin, Hanes-Woolf plot, 5-640 μM D-luciferin, 4 mM ATP): 10.5 µM
Km ([2]; read-out: Km value of CBG relative to D-luciferin, Lineweaver-Burk plot, 5-640 μM D-luciferin, 4 mM ATP): 10.5 µM
Km ([3]; read-out: Km value of ELuc relative to D-luciferin, Hanes-Woolf plot, 5-640 μM D-luciferin, 4 mM ATP): 15 µM
Km ([3]; read-out: Km value of ELuc relative to D-luciferin, Lineweaver-Burk plot, 5-640 μM D-luciferin, 4 mM ATP): 15 µM
Km ([4]; read-out: Km value of CBR relative to D-luciferin, Lineweaver-Burk plot, 5-640 μM D-luciferin, 4 mM ATP): 36.4 µM
Km ([5]; read-out: Km value of Yaeyama relative to D-luciferin, Hanes-Woolf plot, 5-640 μM D-luciferin, 4 mM ATP): 100 µM
Km ([5]; read-out: Km value of Yaeyama relative to D-luciferin, Lineweaver-Burk plot, 5-640 μM D-luciferin, 4 mM ATP): 100 µM

Molecule: CN[C@@H]1C[C@H]2O[C@@](C)([C@@H]1OC)n1c3ccccc3c3c4c(c5c6ccccc6n2c5c31)C(=O)NC4 [STS, Staurosporine]
intercellular ATP concentration at the initial stage of apoptosis (intercellular ATP): caused to increase

affinity to ATP as compared with other kinds of luciferase [6]: relatively low in affinity to ATP
B1: Yaeyama: luciferase originated from Yaeyama Hime firefly (Luciola filiformis yayeyamana), DNA sequence of Sequence No. 1 (protein)
chain: MEMEKEENVVYGPQPFYPIEAGSAGIQLHKYMHQYAQLGAIAFSNALTGVDISYQEYFDITCRLAEAMKNYGMTQEGRIALCSENCEEFFIPVVAGLYIGVGVAPTNEIYTLRELNHSLGIAEPTIVFSSRKGLPKVLEVQKNVTCIKTIVILDSKVNFGGYDCVETFIKKNVPSGFQPSSFKPMDVKNRKEHLALLMNSSGSTGLPKGVQITHEGTVTRFSHAKDPIYGNQVSPGTAILTVVPFHHGFGMFTTLGYFACGYRVVMLTKFDEELFLKTLQDYKCTSVILVPTLFGILNKSELIDKFDLSNLTEIASGGAPLAKEVGEAVARRFNLPGIRQGYGLTETTSAFIITPEGDDKPGASGKVVPLFKVKVIDLDTKKTLGVNRRGEICVKGPSLMKGYVRNPEATKEIIDDEGWMHTGDIGYYDEDEHFFIVDRLKSLIKYKGYQVPPAELESVLLQHPNIFDAGVAGVPDPEAGELPGAVVVLEKGKTMTEKQIVEYVNSQVVNHKRLRGGVRFVDEVPKGLTGKIDAKVIREILKKPQSKM
modifications: Luciola filiformis yayeyamana
time of peak luminescence intensity after the addition of luciferin [7]: 0.5 to 1 s

B2: Genji luciferase (Genji firefly, Luciola cruciata) (Nipponoluciola cruciata) (protein)
chain: MENMENDENIVVGPKPFYPIEEGSAGTQLRKYMERYAKLGAIAFTNAVTGVDYSYAEYLEKSCCLGKALQNYGLVVDGRIALCSENCEEFFIPVIAGLFIGVGVAPTNEIYTLRELVHSLGISKPTIVFSSKKGLDKVITVQKTVTTIKTIVILDSKVDYRGYQCLDTFIKRNTPPGFQASSFKTVEVDRKEQVALIMNSSGSTGLPKGVQLTHENTVTRFSHARDPIYGNQVSPGTAVLTVVPFHHGFGMFTTLGYLICGFRVVMLTKFDEETFLKTLQDYKCTSVILVPTLFAILNKSELLNKYDLSNLVEIASGGAPLSKEVGEAVARRFNLPGVRQGYGLTETTSAIIITPEGDDKPGASGKVVPLFKAKVIDLDTKKSLGPNRRGEVCVKGPMLMKGYVNNPEATKELIDEEGWLHTGDIGYYDEEKHFFIVDRLKSLIKYKGYQVPPAELESVLLQHPSIFDAGVAGVPDPVAGELPGAVVVLESGKNMTEKEVMDYVASQVSNAKRLRGGVRFVDEVPKGLTGKIDGRAIREILKKPVAKM
Km ([8]; other: Hanes-Woolf plot): 75.0 µM
Km ([8]; other: Lineweaver-Burk plot): 75.0 µM
Km ([9]; other: Hanes-Woolf plot): 500 µM
Km ([9]; other: Lineweaver-Burk plot): 500 µM
